Here are results for five compounds from article PMC6447865, “Novel Group of Imidazole Derivatives as Atypical Selective Cyclooxygenase-2 Inhibitors: Design, Synthesis and Biological Evaluation” (Iranian Journal of Pharmaceutical Research : IJPR, 2018).

A word on the melting point: it is the temperature, or range, at which the solid turns liquid. One may read the IC50 as the concentration that inhibits the measured activity by half. A high value points to lower potency.

System in the first data set: not given
Experiment: not given
Conditions: not given
Regarding `CS(=O)(=O)c1ncc(CNc2ccccc2)n1Cc1ccccc1` [Compound 5a, N-((1-benzyl-2-(methylsulfonyl)-1H-imidazol-5-yl)methyl)benzamine], the melting point lay in the range of 114 to 115 °C.

Take `COc1ccc(NCc2cnc(S(C)(=O)=O)n2Cc2ccccc2)cc1` [Compound 5b, N-((1-benzyl-2-(methylsulfonyl)-1H-imidazol-5-yl)methyl)-4-methoxybenzamine]: the melting point amounted to 152 °C.

In the case of `CS(=O)(=O)c1ncc(CNc2ccc(Br)cc2)n1Cc1ccccc1` [Compound 5c, N-((1-benzyl-2-(methylsulfonyl)-1H-imidazol-5-yl)methyl)-4-bromobenzamine], the melting point is 155 °C.

For the compound `CS(=O)(=O)c1ncc(CNc2ccc([N+](=O)[O-])cc2)n1Cc1ccccc1` [Compound 5d, N-((1-benzyl-2-(methylsulfonyl)-1H-imidazol-5-yl)methyl)-4-nitrobenzamine], the melting point turned out to be 177 °C.

In turn, `CS(=O)(=O)c1ncc(CNc2ccc(Cl)cc2)n1Cc1ccccc1` [Compound 5e, N-((1-benzyl-2-(methylsulfonyl)-1H-imidazol-5-yl)methyl)-4-chlorobenzamine] had a melting point of 142 °C.

Another data set deals with T1, COX-2 enzyme (Homo sapiens, UniProt P35354).
T1 construct: purchased Cayman 701050
T1 sequence (P35354 18-604): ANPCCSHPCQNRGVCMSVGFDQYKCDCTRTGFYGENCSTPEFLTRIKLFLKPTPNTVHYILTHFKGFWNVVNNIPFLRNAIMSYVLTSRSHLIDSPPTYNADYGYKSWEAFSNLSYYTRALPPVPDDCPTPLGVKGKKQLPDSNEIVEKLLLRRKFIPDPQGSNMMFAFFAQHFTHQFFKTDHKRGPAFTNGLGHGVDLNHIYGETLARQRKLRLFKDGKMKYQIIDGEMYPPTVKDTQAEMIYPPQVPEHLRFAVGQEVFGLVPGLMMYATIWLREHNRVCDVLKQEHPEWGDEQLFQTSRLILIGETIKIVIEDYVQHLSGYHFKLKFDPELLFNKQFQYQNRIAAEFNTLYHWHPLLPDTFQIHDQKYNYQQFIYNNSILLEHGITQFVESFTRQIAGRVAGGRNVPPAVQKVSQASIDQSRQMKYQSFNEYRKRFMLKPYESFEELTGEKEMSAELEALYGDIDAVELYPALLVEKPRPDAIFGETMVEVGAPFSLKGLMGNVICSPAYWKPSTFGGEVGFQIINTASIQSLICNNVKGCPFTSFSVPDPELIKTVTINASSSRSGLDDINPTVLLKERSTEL
The data set is described as follows: biochemical. Particulars: mean of two values; enzyme incubated with inhibitor 2 min, pH 8.0, 25 °C; arachidonic acid substrate; absorbance 590 nm. As to the method:
(§1) All test samples were dissolved in DMSO and absorbance was read at 590 nm. The IC50 amounts of the novel compounds were analyzed using nonlinear regression with Dos-response inhibition parameter by the activity base software package (Program Prism, Graph Pad, SanDiego, CA).
With `CS(=O)(=O)c1ncc(CNc2ccccc2)n1Cc1ccccc1` [Compound 5a, N-((1-benzyl-2-(methylsulfonyl)-1H-imidazol-5-yl)methyl)benzamine], the IC50 is 3.2 µM.

Consider `COc1ccc(NCc2cnc(S(C)(=O)=O)n2Cc2ccccc2)cc1` [Compound 5b, N-((1-benzyl-2-(methylsulfonyl)-1H-imidazol-5-yl)methyl)-4-methoxybenzamine], for which half-maximal inhibition (IC50) required 0.71 µM.

Consider `CS(=O)(=O)c1ncc(CNc2ccc(Br)cc2)n1Cc1ccccc1` [Compound 5c, N-((1-benzyl-2-(methylsulfonyl)-1H-imidazol-5-yl)methyl)-4-bromobenzamine], for which the midpoint of inhibition, the IC50, lay at 2.8 µM.

For `CS(=O)(=O)c1ncc(CNc2ccc([N+](=O)[O-])cc2)n1Cc1ccccc1` [Compound 5d, N-((1-benzyl-2-(methylsulfonyl)-1H-imidazol-5-yl)methyl)-4-nitrobenzamine], the IC50 worked out at 3 µM.

In the case of `CS(=O)(=O)c1ncc(CNc2ccc(Cl)cc2)n1Cc1ccccc1` [Compound 5e, N-((1-benzyl-2-(methylsulfonyl)-1H-imidazol-5-yl)methyl)-4-chlorobenzamine], the half-inhibitory concentration (IC50) turned out to be 3.6 µM.

Still in this data set, the particulars now being: ratio IC50 COX-1 / IC50 COX-2.
For `CS(=O)(=O)c1ncc(CNc2ccccc2)n1Cc1ccccc1` [Compound 5a, N-((1-benzyl-2-(methylsulfonyl)-1H-imidazol-5-yl)methyl)benzamine], the “COX-2 S.I. (in-vitro COX-2 selectivity index, COX-1/COX-2)” value was determined as 27.

`COc1ccc(NCc2cnc(S(C)(=O)=O)n2Cc2ccccc2)cc1` [Compound 5b, N-((1-benzyl-2-(methylsulfonyl)-1H-imidazol-5-yl)methyl)-4-methoxybenzamine]: the “COX-2 S.I. (in-vitro COX-2 selectivity index, COX-1/COX-2)” value was 115.

`CS(=O)(=O)c1ncc(CNc2ccc(Br)cc2)n1Cc1ccccc1` [Compound 5c, N-((1-benzyl-2-(methylsulfonyl)-1H-imidazol-5-yl)methyl)-4-bromobenzamine]: the “COX-2 S.I. (in-vitro COX-2 selectivity index, COX-1/COX-2)” value is 28.

For the compound `CS(=O)(=O)c1ncc(CNc2ccc([N+](=O)[O-])cc2)n1Cc1ccccc1` [Compound 5d, N-((1-benzyl-2-(methylsulfonyl)-1H-imidazol-5-yl)methyl)-4-nitrobenzamine], the “COX-2 S.I. (in-vitro COX-2 selectivity index, COX-1/COX-2)” value came to 26.

As to `CS(=O)(=O)c1ncc(CNc2ccc(Cl)cc2)n1Cc1ccccc1` [Compound 5e, N-((1-benzyl-2-(methylsulfonyl)-1H-imidazol-5-yl)methyl)-4-chlorobenzamine], the “COX-2 S.I. (in-vitro COX-2 selectivity index, COX-1/COX-2)” value turned out to be 38.

The next data set deals with T2, COX-1 enzyme (Ovis aries, UniProt P05979).
T2 construct: purchased Cayman 701050
T2 sequence (P05979 25-600): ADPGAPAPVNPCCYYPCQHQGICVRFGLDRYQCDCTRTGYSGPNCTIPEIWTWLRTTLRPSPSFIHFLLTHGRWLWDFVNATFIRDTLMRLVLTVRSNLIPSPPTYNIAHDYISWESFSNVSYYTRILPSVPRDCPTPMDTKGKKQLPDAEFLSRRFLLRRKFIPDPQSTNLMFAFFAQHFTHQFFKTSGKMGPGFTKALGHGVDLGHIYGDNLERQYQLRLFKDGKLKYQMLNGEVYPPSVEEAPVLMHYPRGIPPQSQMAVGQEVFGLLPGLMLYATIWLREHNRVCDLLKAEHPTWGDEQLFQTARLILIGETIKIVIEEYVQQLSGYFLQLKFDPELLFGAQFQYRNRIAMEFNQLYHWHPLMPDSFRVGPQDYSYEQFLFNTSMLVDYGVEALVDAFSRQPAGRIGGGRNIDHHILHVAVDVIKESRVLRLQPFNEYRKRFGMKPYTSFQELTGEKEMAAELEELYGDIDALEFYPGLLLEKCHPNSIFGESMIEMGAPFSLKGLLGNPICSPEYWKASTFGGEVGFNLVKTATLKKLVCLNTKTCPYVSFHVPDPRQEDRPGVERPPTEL
The data set is described as follows: biochemical. Conditions: mean of two values; enzyme incubated with inhibitor 2 min, pH 8.0, 25 °C; arachidonic acid substrate; absorbance 590 nm. The method, then:
as §1
Take `CS(=O)(=O)c1ncc(CNc2ccccc2)n1Cc1ccccc1` [Compound 5a, N-((1-benzyl-2-(methylsulfonyl)-1H-imidazol-5-yl)methyl)benzamine]: 87 µM corresponded to half-maximal inhibition (IC50).

`COc1ccc(NCc2cnc(S(C)(=O)=O)n2Cc2ccccc2)cc1` [Compound 5b, N-((1-benzyl-2-(methylsulfonyl)-1H-imidazol-5-yl)methyl)-4-methoxybenzamine] yielded an IC50 of 82 µM.

Turning to `CS(=O)(=O)c1ncc(CNc2ccc(Br)cc2)n1Cc1ccccc1` [Compound 5c, N-((1-benzyl-2-(methylsulfonyl)-1H-imidazol-5-yl)methyl)-4-bromobenzamine], the IC50 turned out to be 78 µM. The IC50 values of the last two compounds are within 1.5-fold of each other.

`CS(=O)(=O)c1ncc(CNc2ccc([N+](=O)[O-])cc2)n1Cc1ccccc1` [Compound 5d, N-((1-benzyl-2-(methylsulfonyl)-1H-imidazol-5-yl)methyl)-4-nitrobenzamine] had an IC50 of 78 µM.

As for `CS(=O)(=O)c1ncc(CNc2ccc(Cl)cc2)n1Cc1ccccc1` [Compound 5e, N-((1-benzyl-2-(methylsulfonyl)-1H-imidazol-5-yl)methyl)-4-chlorobenzamine], the IC50 turned out to be 138 µM.
